Experimental data: US20250221936A1, “ENGINEERED HEMICHANNELS, ENGINEERED VESICLES, AND USES THEREOF” (VIRGINIA TECH INTELLECTUAL PROPERTIES, INC., priority 2018, published 2025)

Columns and labels:
[1] = test system: Cx43 S368 phosphorylation; assay: Western blot of Cx43-pS368 in peptide-infused LV; set-up: species or system mouse; settings: peptide infused 20 minutes; relative to vehicle control
Protocol: Protein samples from all related experiments (PKC and EDC cross-linking assays and Westerns on heart lysates) were processed in lithium dodecyl sulfate sample loading buffer (Bio-Rad, 1610737 CA), heated at 95° C. for 5 minutes. Samples from PKC and cross-linking assays were loaded on 18% Tris-Glycine Stain-Free gels (Bio-Rad, 5678073 CA); samples from heart lysates were loaded on 10% Tris-Glycine Stain-Free el (Bio-Rad: 5678033 CA), resolved by SDS-PAGE, transferred to PVDF FL membrane on a Turbo Transfer System (Bio-Rad, 1704155 CA). alpha CT1 eluted from cross-linking reactions was detected on blots against biotin with HRP-NeutrAvidin (ThermoFisher, 31001, MA). Signals were detected by HR-based chemiluminescence (ThermoFisher, 34095, MA) and exposed to ECL Chemidoc (Bio-Rad, 1708280 CA) and digitized using Image Lab software (Bio-Rad, 1709692 CA). Detailed methods have also been previously described^11, 13, 14 Surface Plasmon Resonance
Male, 3-month-old, body weight 25±5 g C57BL/6 mice were used for this study and obtained from Charles River. Animals were randomly assigned to experimental groups and Left ventricular (LV) function was measured and myocardial ischemia-reperfusion injury (I/R) was induced as previously described^23. Briefly, 15 minutes after the injection of heparin at a dose of 200U/10 g body weight, the mouse was anesthetized by inhalation of isoflurane vapor and subjected to cervical dislocation upon the cessation of respiration. Thoracotomy was immediately performed and the heart excised. The heart was arrested in ice-cold Krebs-Henseleit (KH) buffer (in mM: 25 NaHCO3, 0.5 EDTA, 5.3 KCl, 1.2 MgSO4, 0.5 pyruvate, 118 NaCl, 10 glucose, 2.5 CaCl2). The aorta was isolated and cannulated in a Langendorff perfusion system. The heart was then perfused at a constant pressure of 75 mmHg with KH buffer, which was continually bubbled with 5% CO2/95% O2 at 37° C. Effluent from the Thebesian veins was drained by a thin polyethylene tube (PE-10) pierced through the apex of the LV. […] After a 30-minute stabilization period, a balloon volume (BV) generating an LV end-diastolic-pressure (EDP) of 0 mmHg, was determined for the heart. The BV was then increased stepwise up through 1, 2, 5, 8, 10, 12, 15, 18, 20, 25, 30 μl increments of 1-5 μl and contractile performance were recorded for 10 seconds at each step. […] Data was recorded and analyzed using PowerLab 4/35 (ADInstruments, PL3504, CO) and LabChart V7 (ADInstruments, CO). […] Baseline function (determined by EDP at about 8-10 mmHg) was recorded for 5 minutes. […] BV was retaken through the stepwise sequence of 1-5 μl increments between 1 and 30 μl, with contractile performance again being recorded for 10 seconds at each step. Cardiac LV function was recorded throughout the procedure. […]

Cx43 CT-KK/QQ = target: T1, Cx43 CT-KK/QQ (Rattus norvegicus, UniProt P08050, K345Q/K346Q); assay: Surface plasmon resonance, Cx43 CT-KK/QQ analyte; assay type: binding; settings: biotin-peptide immobilized on streptavidin chip
T1 construct: pGEX-6-P2 Cx43 CT amino acids 255-382; GST (N, cleaved yes); made in house; host or cells: E. coli BL21
Text: Peptides were synthesized and quality checked for fidelity and purity using High Performance Liquid Chromatography and mass spectrometry (LifeTein, Hillsborough, NJ). Biotinylated peptides were designed for surface plasmon resonance experiments. Glutathione-S-Transferase (GST) fusion protein constructs composed of the Cx43-CT (pGEX-6-P2 Cx43 CT amino acids 255-382), ZO-1 PDZ1, PDZ2 and PDZ3 were isolated and purified from isopropyl-b-D-thiogalactoside (IPTG)-induced BL21 bacteria using standard procedures, described in references 13, 14, 20. The pGEX6p2-Cx43 CT plasmid was obtained from Prof. Paul L. Sorgen (University of Nebraska Medical Center, USA). Cx43 CT mutant (Cx43 CT-KK/QQ; amino acids Lys345 Lys346 to Gln 345 Gln 346) was developed by site-directed mutagenesis of the pGEX6p2-Cx43 CT plasmid (Agilent technologies, QuikChange II Site-Directed Mutagenesis Kit). The mutation was verified by sequencing. For surface plasmon resonance experiments, the GST was removed using PreScission protease, yielding Cx43 CT protein (wild-type or mutant).
Efficacy of the interaction of each alpha CT1 variant with Cx43 CT or Cx43 CT-KK/QQ was tested using surface plasmon resonance (SPR) as described previously 20. In brief, SPR experiments were performed using a Biacore T200 (GE Healthcare). Equal amounts (response units/RU) of biotin-alpha CT1 variants were immobilized on each flow cell of a streptavidin-coated sensor chip (Biacore Inc) using immobilization buffer (in mM: 10 HEPES, 1 EDTA, 100 NaCl, 0.005% Tween-20) at pH 7.4. Measurements with wild-type (wt) Cx43 CT and mutant Cx43 CT-KK/QQ analytes were done in running buffer (in mM: 10 HEPES, 100 NaCl, pH 7.4) at a flow rate of 30 μl/min. Binding of analytes were verified at different concentrations, in random order (injection volume 120 μl). Interacting proteins were then unbound by injection of […] regeneration buffer (50 mM NaOH and 1 M NaCl) at a flow rate of 10 μl/min. Background levels were obtained from a reference cell containing a biotin-control peptide in which the reversed sequence of the last 9 amino acids of Cx43 was fused to biotin-antennapedia. The RU values obtained with biotin-control peptide were subtracted from the RU values obtained with the different biotin-alphaCT1 variants (wild-type or mutant) to generate the different response curves.

T1 sequence (P08050 255-382 K345Q/K346Q): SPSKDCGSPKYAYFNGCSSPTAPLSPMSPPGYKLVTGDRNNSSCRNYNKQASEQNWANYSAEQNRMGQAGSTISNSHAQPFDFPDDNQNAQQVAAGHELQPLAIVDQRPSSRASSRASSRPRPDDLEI

Sequence	Cx43 pS368 in LV samples [1]	SPR binding to Cx43 CT-KK/QQ (Cx43 CT-KK/QQ)
RQPKIWFPNRRKPWKK RPRPAALAI (RQPKIWFPNRRKPWKKRPRPAALAI) [M1 AALAI]	no propensity to upregulate S368 phosphorylation	unable mediate interactions
RQPKIWFPNRRKPWKKRPRPDDLAI [M3 DDLAI]	no propensity to upregulate S368 phosphorylation	unable mediate interactions
RQPKIWFPNRRKPWKKRPRPDDLE [alpha CT1-I]	significant increases in phosphorylation	
RQPKIWFPNRRKPWKKRPRPDDLEI [alpha CT1]	significant increases in phosphorylation	unable mediate interactions
